Measured values reported in PubChem BioAssay (NCI).
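Where inhibition never reached the appropriate level, the endpoint shown equals the highest concentration tested. Otherwise, values were interpolated linearly from a five-concentration, 48-hour dose response in 96-well plates. TGI: total growth inhibition.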

Key:
Assay in all cases: growth of human tumour cells (NCI), 48 h
[1] = tested on: M14 melanoma
[2] = tested on: HL-60(TB) leukemia
[3] = tested on: DLD-1 colon
[4] = tested on: MALME-3M melanoma
[5] = tested on: ACHN renal
[6] = tested on: HT29 colon
[7] = tested on: UO-31 renal
[8] = tested on: HCC-2998 colon
[9] = tested on: SF-295 CNS
[10] = tested on: SK-OV-3 ovarian
[11] = tested on: KM20L2 colon
[12] = tested on: TK-10 renal
[13] = tested on: HCT-15 colon
[14] = tested on: K-562 leukemia
[15] = tested on: OVCAR-3 ovarian
[16] = tested on: OVCAR-5 ovarian
[17] = tested on: NCI-H522 lung
[18] = tested on: DMS 114 small cell lung
[19] = tested on: MOLT-4 leukemia
[20] = tested on: SNB-75 CNS
[21] = tested on: CCRF-CEM leukemia
[22] = tested on: A549 NSCLC
[23] = tested on: XF 498 CNS
[24] = tested on: SNB-19 CNS
[25] = tested on: LXFL 529 NSCLC
[26] = tested on: M19-MEL melanoma
[27] = tested on: UACC-62 melanoma
[28] = tested on: NCI-H460 lung
[29] = tested on: NCI-H23 lung
[30] = tested on: COLO 205 colon
[31] = tested on: SK-MEL-2 melanoma
[32] = tested on: SNB-78 CNS
[33] = tested on: LOX IMVI melanoma
[34] = tested on: RXF 393 renal
[35] = tested on: SK-MEL-5 melanoma
[36] = tested on: RPMI-8226 leukemia
[37] = tested on: SF-268 CNS
[38] = tested on: IGROV1 ovarian
[39] = tested on: OVCAR-8 ovarian
[40] = tested on: HOP-62 NSCLC
[41] = tested on: SN12C renal
[42] = tested on: SK-MEL-28 melanoma
[43] = tested on: UACC-257 melanoma
[44] = tested on: SW-620 colon
[45] = tested on: EKVX NSCLC
[46] = tested on: HOP-92 NSCLC
[47] = tested on: CAKI-1 renal
[48] = tested on: 786-0 renal
[49] = tested on: DMS 273 small cell lung
[50] = tested on: OVCAR-4 ovarian
[51] = tested on: KM12 colon
[52] = tested on: SF-539 CNS
[53] = tested on: NCI-H226 lung
[54] = tested on: HCT-116 colon
[55] = tested on: U251 CNS
[56] = tested on: A498 renal
[57] = tested on: SR leukemia
[58] = tested on: HOP-18 NSCLC

Measured: TGI

c1ccc(CNn2nnc3ccccc32)cc1
not listed: [52] | [53] | [54] | [55] | [56] | [57] | [58]
> 100 µM: all other assays above

O=C1OC(c2ccccc2)=N/C1=C\c1cccc2ccccc12
not listed: [11] | [45]
> 100 µM: all other assays above

CS/C(N)=N\NC(=O)CCC(=O)Nc1ccccc1C(F)(F)F
> 58.5 µM: [11]
> 83.1 µM: [20]
not listed: [2] | [23]
> 100 µM: all other assays above

O=C1CCC(c2ccc(Cl)cc2)=NN1c1nsc2ccccc12
38.7 µM: [31]
51.2 µM: [54]
53.2 µM: [19]
42.6 µM: [36]
88.5 µM: [45]
44.8 µM: [8]
54.8 µM: [57]
59.6 µM: [34]
68 µM: [14]
67.3 µM: [41]
68.8 µM: [43]
44.7 µM: [15]
80 µM: [21]
78.7 µM: [32]
59.1 µM: [7]
81.4 µM: [25]
46.3 µM: [2]
74.5 µM: [49]
71.2 µM: [46]
56 µM: [20]
87.9 µM: [18]
not listed: [1] | [3] | [4] | [9] | [10] | [13] | [17] | [23] | [33] | [35] | [47] | [48] | [53] | [56]
> 100 µM: all other assays above
